Laboratory results as given in article PMC12332266 (Frontiers in Pharmacology, 2025).
Read-outs that look alike come from different tables or passages of the source.

Legend:
[1] = test system: hiPSC-CM (iCell Cardiomyocytes^2); experiment: Intracellular miRNA expression by RT-qPCR in hiPSC-CM pellets after 72-hour treatment; settings: for fold induction at 0.01 µM / fold induction at 0.03 µM / fold induction at 0.1 µM / fold induction at 0.3 µM: Homo sapiens
Procedure: (§1) Culture media change was performed every 2 days.
Total RNA was extracted from hiPSC-CM using the miRNeasy 96 Kit (Qiagen, Hilden, Germany) following the manufacturer’s recommendations. After the extraction, RNA purity was assessed by NanoDrop™ 8000 Spectrophotometer (Thermo Fisher Scientific Inc.). 5–10 ng/μL of RNA per sample were reverse transcribed and pre-amplified by using the TaqMan™ Advanced miRNA cDNA Synthesis Kit (Thermo Fisher Scientific Inc.). The synthesized cDNA was used for RT-qPCR with selected TaqMan™ assays (Thermo Fischer Scientific Inc.). RT-qPCR was carried out following the Applied Biosciences TaqMan miRNA expression assay protocol on a ViiA7 instrument (Thermo Fisher Scientific, Inc.). […] Therefore, to maximize the number of drugs and concentrations, explored in the same study, we pooled the triplicates for intracellular profiling of miRNAs. Therefore, no statistical analysis was performed on the data of miRNA profiling in the pellets of hiPSC-CM.
Following RTCA CardioECR assessment, hiPSC-CM cell pellets were collected, and total RNA was extracted and purified to investigate miRNAs upregulation by RT-qPCR. […] For the initial assessment of intracellular miRNAs in 12 different treatments, encompassing various drug classes, we used a panel of 17 miRNAs, which we selected from the publicly available data focusing mainly on in vitro models and structural cardiotoxicants (Supplementary Table S2).

[2] = test system: hiPSC-CM (iCell Cardiomyocytes^2); experiment: RTCA CardioECR assessment (impedance and electrophysiology parameters)
Procedure: as §1
After seeding on fibronectin-coated xCELLigence ePlates (Agilent Technologies, Inc. Santa Clara, CA, USA), iCell^2 CM were monitored continuously through impedance electrodes. The following impedance parameters were measured: Cell Index (CI, measure of cell “health” and monolayer integrity), beating rate (BR) and amplitude (CI Amplitude, magnitude of contraction). Electrophysiology-like parameters (Field Potential Duration (FPD), considered as a surrogate for QT in in vivo studies, and Spike Amplitude (SA), depolarization induced by Na^+ channel opening) were measured starting from day 4–6, following the monolayer formation. […] All RTCA CardioECR data were double normalized (DMSO control and the baseline) with no further statistical group comparison for the normalized parameters. The variability of the data within the treatment groups was assessed by standard deviation.

[3] = 72 h, read-out: hsa-miR-7-5p fold change
[4] = 72 h, read-out: hsa-miR-29a-5p fold change
[5] = 72 h, read-out: hsa-miR-96-5p fold change
[6] = 72 h, read-out: hsa-miR-126-3p fold change
[7] = 72 h, read-out: hsa-miR-133b fold change
[8] = 72 h, read-out: hsa-miR-146b-5p fold change
[9] = 72 h, read-out: hsa-miR-182-5p fold change
[10] = 72 h, read-out: hsa-miR-185-3p fold change
[11] = 72 h, read-out: hsa-miR-187-3p fold change
[12] = 72 h, read-out: hsa-miR-208b-3p fold change
[13] = 72 h, read-out: hsa-miR-365a-5p fold change
[14] = 72 h, read-out: hsa-miR-[…] change
[15] = hiPSC-CM, 72-hour treatment, lowest concentration causing at least 20% change from baseline

`Cc1ccc(NC(=O)c2ccc(CN3CCN(C)CC3)cc2)cc1Nc1nccc(-c2cccnc2)n1` [Imatinib] was tested, and the “miRNAs hiPSC-CM pellet, MEC overall” value [1] was 0.3 µM and the “Spike Amplitude (SA) MEC” value ([2]; human, 72 h) was 0.3 µM.
Molecule `CCN[C@@H](C)Cc1cccc(C(F)(F)F)c1` [Dexfenfluramine] has a fold induction at 0.01 µM [1, 3] of 0.8, a fold induction at 0.03 µM [1, 3] of 0.8 and a fold induction at 0.1 µM [1, 3] of 0.7. The fold induction at 0.3 µM [1, 3] was 1, the fold induction at 0.01 µM [1, 4] was 1.8 and the fold induction at 0.03 µM [1, 4] was 0.8. The fold induction at 0.3 µM [1, 4] was 0.7, the fold induction at 0.01 µM [1, 5] was 1.8 and the fold induction at 0.03 µM [1, 5] was 0.8. For the same molecule, the fold induction at 0.3 µM [1, 5] was 0.7, the fold induction at 0.01 µM [1, 6] was 1.3 and the fold induction at 0.03 µM [1, 6] was 2.3. The fold induction at 0.1 µM [1, 6] was 0.6, the fold induction at 0.3 µM [1, 6] was 0.5 and the fold induction at 0.01 µM [1, 7] was 4. It also gave a fold induction at 0.03 µM [1, 7] of 0.7, a fold induction at 0.1 µM [1, 7] of 0.5 and a fold induction at 0.3 µM [1, 7] of 0.1. It also gave a fold induction at 0.01 µM [1, 8] of 0.5, a fold induction at 0.03 µM [1, 8] of 0.7 and a fold induction at 0.1 µM [1, 8] of 0.4. The fold induction at 0.3 µM [1, 8] was 0.7, the fold induction at 0.01 µM [1, 9] was 0.01 and the fold induction at 0.03 µM [1, 9] was 0.004. The fold induction at 0.1 µM [1, 9] was 0.003, the fold induction at 0.3 µM [1, 9] was 0.01 and the fold induction at 0.01 µM [1, 10] was 2.1. The fold induction at 0.03 µM [1, 10] was 1.2, the fold induction at 0.1 µM [1, 10] was 1 and the fold induction at 0.3 µM [1, 10] was 0.7. For the same molecule, the fold induction at 0.01 µM [1, 11] was 0.6, the fold induction at 0.03 µM [1, 11] was 0.7 and the fold induction at 0.1 µM [1, 11] was 0.7. The fold induction at 0.3 µM [1, 11] was 0.6, the fold induction at 0.01 µM [1, 12] was 1.1 and the fold induction at 0.03 µM [1, 12] was 1. For the same molecule, the fold induction at 0.1 µM [1, 12] was 0.8, the fold induction at 0.3 µM [1, 12] was 0.9 and the fold induction at 0.03 µM [1, 13] was 2.6. It also gave a fold induction at 0.3 µM [1, 13] of 8.9, a fold induction at 0.01 µM [1, 14] of 1.2 and a fold induction at 0.03 µM [1, 14] of 0.9. For the same molecule, the fold induction at 0.1 µM [1, 14] was 0.8, the fold induction at 0.3 µM [1, 14] was 0.8 and the “miRNAs upregulated at the MEC overall (hiPSC-CM pellet)” value (from here on “miRNAs upregulated at the MEC overall”) ([1]; fold change ≥2, 72 h) was “miR-133b, miR-185-3p”. For the same molecule, the “miRNAs hiPSC-CM pellet, MEC overall” value ([1]; lowest concentration tested which produced miRNA upregulation (fold change ≥2), 72 h) was 0.01 µM, the “Spike Amplitude (SA) MEC” value ([2]; hiPSC-CM, 72-hour treatment, at least 40% change) was 0.01 µM and the “Beating rate (BR) MEC” value [2, 15] was “ND (ND – not detected, magnitude of change was lower than 20%)”. The “Cell index (CI) MEC” value [2, 15] was “ND (ND – not detected, magnitude of change was lower than 20%)”, the “RTCA, MEC (BR)” value ([2]; hiPSC-CM, change ≥20%, Table 2) was “ND (ND – not detected, magnitude of change was lower than 20% for CI/BR)” and the “RTCA, MEC (CI)” value ([2]; hiPSC-CM, change ≥20%, Table 2) was “ND (ND – not detected, magnitude of change was lower than 20% for CI/BR)”.
`O=C1c2c(O)ccc(O)c2C(=O)c2c(NCCNCCO)ccc(NCCNCCO)c21` [Mitoxantrone] was tested, and the “miRNAs hiPSC-CM pellet, MEC overall” value [1] was 0.1 µM, the “miRNAs upregulated at the MEC overall” value [1] was “miR-96 -5p, miR-146b-5p, miR-182-5p, miR-187-3p, miR-365a-5p” and the “RTCA, MEC (CI)” value ([2]; hiPSC-CM, change ≥20%, Table 2) was 0.1 µM (CI, BR). The “Beating Rate MEC” value ([2]; human, 72 h) was 0.1 µM, the “Beating rate (BR) MEC” value ([2]; human, 72 h) was 0.1 µM and the “Contractility Amplitude MEC” value ([2]; human, 72 h) was 0.1 µM. The “Field Potential Duration MEC” value ([2]; human, 72 h) was 0.1 µM, the “RTCA, MEC (BR)” value ([2]; human, 72 h) was 0.1 µM (CI, BR) and the “Spike Amplitude (SA) MEC” value ([2]; human, 72 h) was 0.1 µM.
`CC(=O)O[C@H]1C(=O)[C@@]2(C)[C@H]([C@H](OC(=O)c3ccccc3)[C@]3(O)C[C@H](OC(=O)[C@H](O)[C@@H](NC(=O)c4ccccc4)c4ccccc4)C(C)=C1C3(C)C)[C@]1(OC(C)=O)CO[C@@H]1C[C@@H]2O` [Paclitaxel] was tested, and the “miRNAs hiPSC-CM pellet, MEC overall” value [1] was 0.3 µM, the “miRNAs upregulated at the MEC overall” value [1] was “miR-96-5p, miR-133b” and the “RTCA, MEC (CI)” value ([2]; hiPSC-CM, change ≥20%, Table 2) was 0.3 µM. For the same molecule, the “Beating Rate MEC” value ([2]; human, 72 h) was 3 µM, the “Beating rate (BR) MEC” value ([2]; human, 72 h) was 3 µM and the “Contractility Amplitude MEC” value ([2]; human, 72 h) was 0.3 µM. The “Field Potential Duration MEC” value ([2]; human, 72 h) was 3 µM, the “RTCA, MEC (BR)” value ([2]; human, 72 h) was 3 µM and the “Spike Amplitude (SA) MEC” value ([2]; human, 72 h) was 3 µM.
